The source of these data is ChEMBL document CHEMBL1134717 (Bioorg Med Chem Lett, 2001).

The target in one test is Mu-type opioid receptor (Cavia porcellus, UniProt P97266). Description: Binding affinity towards Opioid receptor mu 1 of guinea pig brain membranes using radioligand 0.25 nM [3H]DAMGO.
Test [1] has as its target Kappa-type opioid receptor (Cavia porcellus, UniProt P41144). Briefly: Binding affinity towards guinea pig Opioid receptor kappa 1 using radioligand [3H]U-69593.

Each structure is given as a SMILES string.

Chain of Mu-type opioid receptor (P97266 whole entry): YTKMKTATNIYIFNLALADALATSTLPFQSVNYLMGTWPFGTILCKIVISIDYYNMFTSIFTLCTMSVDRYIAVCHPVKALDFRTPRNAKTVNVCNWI
Chain of Kappa-type opioid receptor (P41144 whole entry): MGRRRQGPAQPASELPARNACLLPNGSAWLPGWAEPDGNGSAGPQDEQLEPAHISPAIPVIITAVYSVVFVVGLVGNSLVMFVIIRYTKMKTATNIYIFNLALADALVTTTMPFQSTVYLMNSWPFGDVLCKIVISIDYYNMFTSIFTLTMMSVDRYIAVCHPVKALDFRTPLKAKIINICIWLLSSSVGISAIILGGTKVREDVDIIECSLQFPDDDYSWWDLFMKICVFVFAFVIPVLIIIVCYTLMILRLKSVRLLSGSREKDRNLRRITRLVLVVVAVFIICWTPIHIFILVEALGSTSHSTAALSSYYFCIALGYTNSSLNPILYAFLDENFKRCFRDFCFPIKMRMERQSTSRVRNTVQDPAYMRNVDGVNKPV

In general, Ki refers to the equilibrium dissociation constant of an inhibitor or competing ligand from its target. Read a low Ki as tighter binding. On to `CNC(=O)c1ccc2c3c1OC1C(O)C=C[C@H]4[C@@H](C2)N(C)CC[C@]314` (stereo partly drawn), for which the inhibition constant Ki at Mu-type opioid receptor was 0.44 µM; in test [1], over 10 µM.

For `CN1CC[C@]23c4c5ccc(C(N)=O)c4OC2C(O)C=C[C@H]3[C@H]1C5` (stereo partly drawn), the Ki came out at 0.034 µM on Mu-type opioid receptor and 2 µM in test [1].

`CN(C)C(=O)c1ccc2c3c1OC1C(O)C=C[C@H]4[C@@H](C2)N(C)CC[C@]314` (stereo partly drawn) returned a Ki in test [1] of over 10 µM.

Take `C[C@H]1[C@H]2Cc3ccc(O)cc3[C@]1(C)CCN2CC1CC1` [CYCLAZOCINE]: the affinity in test [1] corresponds to a Ki of 0.00018 µM.

Turning to `NC(=O)c1ccc2c3c1O[C@H]1C(=O)CC[C@@]4(O)[C@@H](C2)N(CC2CC2)CC[C@]314`, the figures for the Ki (on Mu-type opioid receptor; in test [1]) were 0.0019 µM and 0.022 µM, respectively.
